The subject of assay [1] is P. berghei ANKA. In words: Cerebral malaria experimental mouse model (development of cerebral malaria, mortality). To be noted: C57BL/6J mice infected with P. berghei ANKA; Losartan 10 mg/Kg/d in drinking water; compared with vehicle treatment. The assay is classed as in vivo.
The test system of assay [2] is human brain microvascular endothelial cells (HBMECs). In words: iRBC-induced disruption of interendothelial junctions and detachment of HBMEC monolayer (nuclei count, PrestoBlue viability). It is filed as cell-based. To be noted: P. falciparum iRBCs over HBMECs, 18 hours; compound 10^−5 M.
Description: Cell viability assay. To assess the viability of the adherent HBMECs PrestoBlue Cell Viability Reagent (Invitrogen) was utilized. […] After 18 hours, the plates were washed twice with PBS, and PrestoBlue Cell Viability Reagent diluted 1:10 with medium, was added. Samples were then incubated for 3 hours at 37° C. PrestoBlue is reduced from blue resazurin to red resorufin in the presence of viable cells. The absorbance (595 nm) was read with a Victor X3 plate reader.
Assay [3] deals with P. berghei ANKA. In words: Brain histopathology (hemorrhages, blood brain barrier integrity) in cerebral malaria mouse model. The assay is classed as in vivo. To be noted: Losartan 10 mg/Kg/d, CGP-42112A 500 ng/min/kg. How it is done: Cerebral Malaria Experimental Mouse Model. Female C57BL/6J mice were obtained from Taconic Farms Inc. All mice were maintained under barrier conditions. Water and normal laboratory diet were available ad libitum. The infection was performed by inoculating i.p. 10^6 infected erythrocytes with P. berghei ANKA. All procedures involving animals conformed to the Guide for the Care and Use of Laboratory Animals published by US National Institutes of Health (NIH Publication No. 85-23, revised 1985) and were performed with the approval of the Animal Care and Use Committee at the University of New York. Alzet osmotic minipumps (Model 1002; ALZA Scientific Products, Mountain View, Calif., USA) were implanted into C57BL/6J mice at 4 months of age. Pumps were filled either with saline vehicle or solution of CGP-42112A (Sigma Chemical Co.) that delivered (subcutaneously) at 500 ng/min/kg for the duration of the study. Pumps were placed into the subcutaneous space of subcutaneous bupivacaine anesthetized mice through a small incision on the animal back slightly posterior of the shoulder blades that was closed with Reflex 7 mm wound closure system (ALZA Scientific Products, Mountain View, Calif., USA).

Peptide text beside a SMILES is read from it.

Two compounds from patent publication US20150119329A1, “MODULATION OF ANGIOTENSIN II RECEPTORS FOR THE PREVENTION AND TREATMENT OF MALARIA CEREBRAL” (NEW YORK UNIVERSITY, priority 2012, published 2015) can be followed below.

On to `CCCCc1nc(Cl)c(CO)n1Cc1ccc(-c2ccccc2-c2nnn[nH]2)cc1` [Losartan, (2-butyl-4-chloro-1-{[2′-(1H-tetrazol-5-yl)biphenyl-4-yl]methyl]-1H-imidazol-5-yl)methanol], for which the reduction of mortality with P. berghei ANKA [1] is given as 4-5 times.
For `CC[C@H](C)[C@H](NC(=O)[C@@H]1CCCN1C(=O)[C@H](Cc1c[nH]cn1)NC(=O)[C@H](CCCCNC(=O)[C@H](CCCNC(=N)N)NC(=O)OCc1ccccc1)NC(=O)[C@H](Cc1ccc(O)cc1)NC(=O)c1cccnc1)C(=O)O` [CGP-42112A, (25,35)-2-[[(25)-1-[(25)-2-[[(25)-6-[[(25)-5-(diaminomethylideneamino)-2-(phenylmethoxy-carbonylamino)pentanoyl]amino]-2-[[(25)-3-(4-hydroxyphenyl)-2-(pyridine-3-carbonylamino)propanoyl]amino]hexanoyl]amino]-3-(1H-imidazol-5-yl)propanoyl]pyrrolidine-2-carbonyl]amino]-3-methylpentanoic acid] (HELM PEPTIDE1{[O=C(c1cccnc1)[*:2]].Y.K.H.P.I}|PEPTIDE2{[O=C(OCc1ccccc1)[*:2]].R}$PEPTIDE1,PEPTIDE2,3:R3-2:R2$$$V2.0), the “damage to HBMECs caused by rupture and release of iRBCs, compared to control” value in assay [2] turned out to be 20%. Also, the “quantification of hemorrhages in brain histological slices” value with P. berghei ANKA [3] (brains of infected mice (FIG. 4)) is on record as “protective effect”. Besides, the “structure of the brain vessels and integrity of the blood brain barrier (BBB)” value in the assay on P. berghei ANKA [3] (brains of infected mice, Hematoxillin/Eosin, versus untreated groups) is reported as “better maintained”.
